Measurements published in US7893256B2, “Azabicycloalkane compounds” (Theravance, Inc., priority 2003, dated 2011).

What was measured:
[1] = target: T1, human β2 adrenergic receptor (Homo sapiens, UniProt P07550); assay: Radioligand binding assay for human β2 adrenergic receptor (Assay Test Procedure A)
T1 construct: expressed in transfected cells; membranes
Method: Chinese hamster ovarian (CHO) cell lines stably expressing cloned human β1, β2 or β3 adrenergic receptors, respectively, were grown to near confluency in Hams F-12 media with 10% FBS in the presence of 500 μg/mL Geneticin. The cell monolayer was lifted with 2 mM EDTA in PBS. Cells were pelleted by centrifugation at 1,000 rpm, and cell pellets were either stored frozen at −80° C. or membranes were prepared immediately for use. For preparation of β1 and β2 receptor expressing membranes, cell pellets were re-suspended in lysis buffer (10 mM HEPES/HCl, 10 mM EDTA, pH 7.4 at 4° C.) and homogenized using a tight-fitting Dounce glass homogenizer (30 strokes) on ice. […] The protein concentration of the membrane suspension was determined by the methods described in Lowry et al., 1951, Journal of Biological Chemistry, 193, 265; and Bradford, Analytical Biochemistry, 1976, 72, 248-54. […]
Binding assays were performed in 96-well microtiter plates in a total assay volume of 100 μL with 10-15 μg of membrane protein containing the human β1, β2 or β3 adrenergic receptors in assay buffer (75 mM Tris/HCl pH 7.4 at 25° C., 12.5 mM MgCl2, 1 mM EDTA, 0.2% BSA). […] Non-specific binding was determined in the presence of 10 μM propranolol. […] Filter plates were washed three times with filtration buffer (75 mM Tris/HCl pH 7.4 at 4° C., 12.5 mM MgCl2, 1 mM EDTA) to remove unbound radioactivity. […]

[2] = target: T1, human β2 adrenergic receptor; assay: Whole-cell cAMP Flashplate assay in CHO cell lines heterologously expressing human β2 adrenergic receptor (Assay Test Procedure C); assay type: cell-based
Method: cAMP assays were performed in a radioimmunoassay format using the Flashplate Adenylyl Cyclase Activation Assay System with [^125I]-cAMP (NEN SMP004, PerkinElmer Life Sciences Inc., Boston, Mass.), according to the manufacturers instructions. For the determination of […] receptor agonist potency (EC50), CHO-K1 cell lines stably expressing cloned human β1, β2 or β3 adrenergic receptors were grown to near confluency in HAM's F-12 media supplemented with 10% FBS and Geneticin (250 μg/mL). Cells were rinsed with PBS and detached in dPBS (Dulbecco's Phosphate Buffered Saline, without CaCl2 and MgCl2) containing 2 mM EDTA or Trypsin-EDTA solution (0.05% trypsin/0.53 mM EDTA). After counting cells in Coulter cell counter, cells were pelleted by centrifugation at 1,000 rpm and re-suspended in stimulation buffer containing IBMX (PerkinElmer Kit) pre-warmed to room temperature to a concentration of 1.6×10^6 to 2.8×10^6 cells/mL. About 60,000 to 80,000 cells per well were used in this assay. […] The amount of cAMP produced (pmol/well) was calculated based on the counts observed for the samples and cAMP standards as described in the manufacturer's user manual. Data were analyzed by nonlinear regression analysis with the GraphPad Prism Software package (GraphPad Software, Inc., San Diego, Calif.) with the sigmoidal equation. […]

T1 sequence (P07550 whole entry): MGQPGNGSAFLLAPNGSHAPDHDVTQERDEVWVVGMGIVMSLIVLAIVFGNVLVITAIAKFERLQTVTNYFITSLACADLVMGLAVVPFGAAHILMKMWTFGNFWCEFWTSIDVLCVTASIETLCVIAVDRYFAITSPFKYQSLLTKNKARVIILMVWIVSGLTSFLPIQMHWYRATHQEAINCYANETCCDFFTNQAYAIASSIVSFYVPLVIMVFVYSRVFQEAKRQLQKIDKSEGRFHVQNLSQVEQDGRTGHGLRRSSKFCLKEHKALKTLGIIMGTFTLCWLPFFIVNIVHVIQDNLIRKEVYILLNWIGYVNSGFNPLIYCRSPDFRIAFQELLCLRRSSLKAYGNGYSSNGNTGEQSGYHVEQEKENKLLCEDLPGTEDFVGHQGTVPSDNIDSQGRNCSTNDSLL

C[N+]1(CCCCCCCCCNC[C@H](O)c2ccc(O)c3[nH]c(=O)ccc23)C2CC(OC(=O)C(O)(c3cccs3)c3cccs3)CC1C1OC12.C[N+]1(CCCCCCCCCNC[C@H](O)c2ccc(O)c3[nH]c(=O)ccc23)C2CC(OC(=O)C(O)(c3cccs3)c3cccs3)CC1C1OC12.O=C([O-])C(F)(F)F.O=C([O-])C(F)(F)F (stereo partly drawn) [Example 1, 7-(2-Hydroxy-2,2-dithiophen-2-ylacetoxy)-9-{9-[(R)-2-hydroxy-2-(8-hydroxy-2-oxo-1,2-dihydroquinolin-5-yl)ethylamino]nonyl}-9-methyl-3-oxa-9-azonia-tricyclo[3.3.1.0^2,4]nonane Ditrifluoroacetate]
Ki ([1]; radioligand displacement, CHO cell membranes, [3H]-dihydroalprenolol): < 0.05 µM
ratio of Ki(β1)/Ki(β2) ([1]; receptor subtype selectivity, binding, β2 over β1): greater than 5
EC50 ([2]; cAMP, CHO-K1 cells expressing cloned human β2 receptor): < 0.01 µM
ratio of EC50(β1)/EC50(β2) ([2]; receptor subtype selectivity, functional, β2 over β1): greater than 10
